Reference: patent US11998577B2, “Methods for increasing growth of beneficial bacteria in the gastrointestinal tract” (ABBOTT LABORATORIES, priority 2017, dated 2024)

What was measured:
genus Bifidobacterium = experiment: Fecal fermentation, quantification of genus Bifidobacterium by real-time PCR; assay type: cell-based; conditions: faecal slurry of formula-fed baby, 37° C., pH 5.5, anaerobic; 2′-FL at both daily (DD) and per intake (DI) doses; p<0.05 vs blend (DD) and blend (DI)
Method: (§1) Example 2: A series of experiments were carried out to determine the effects of providing 2′-FL, lutein, and RRR-alpha-tocopherol on bacterial growth. Fecal fermentations were carried out by using 3 ml fermentations in 10 ml fermentor (24 multi-well plate; μ-24 Bioreactor, Applikon Biotechnology). Fresh faecal sample came from a formula (without prebiotic or probiotic)-fed baby. Stools were vacuum stored in refrigerated conditions until the fermentation. Fresh feces were weighed and dissolved in Mc Bain and MacFarlane medium (1:5) to hydrate them. Three milliliters of the homogenized mixture (faecal slurry) were inoculated in each fermenter. In each case, prebiotic (2′-FL), RRR-alpha-tocopherol (vitamin E) and lutein were added at different dosage (Table 4). […] Anaerobiosis, temperature (37° C.) and pH levels (pH 5.5) were maintained during the assay and monitored throughout the study. […] For quantification, previous extracted DNA was used. Real-time PCR was used to quantify genera Bifidobacterium and Lactobacillus, and B. longum and L. fermentum species. In the case of genus Bifidobacterium and B. longum, quantification was performed with primers described by Matsuki et al.1. Lactobacillus group was quantified with primers described by Byun et al.2. Lactobacillus fermentum was quantified with the aid of primers designed by Matsuda et al.3 Nucleotide sequences of primers are listed in Table 5. […]

B. longum = experiment: Fecal fermentation, quantification of B. longum species by real-time PCR; assay type: cell-based, Bifidobacterium longum; conditions: faecal slurry fermentation; 2′-FL at both daily (DD) and per intake (DI) doses; p<0.05 vs product (DD) and blend (DI)
Method: as §1

L. fermentum = experiment: Fecal fermentation, quantification of L. fermentum species by real-time PCR; assay type: cell-based, Lactobacillus fermentum; conditions: faecal slurry fermentation; detection limit 1.00·103CFU/g slurry
Method: as §1

How did the “bifidobacteria numbers (real-time PCR, FIG. 1)” value (genus Bifidobacterium) turn out when `C[C@@H]1O[C@@H](O[C@H]2[C@H](O[C@H]3[C@H](O)[C@@H](O)C(O)O[C@@H]3CO)O[C@H](CO)[C@H](O)[C@@H]2O)[C@@H](O)[C@H](O)[C@@H]1O` (stereo partly drawn) [2′-FL, 2′-fucosyllactose] was run?
The value was “significant higher bifidobacteria numbers”.

What about the “B. longum numbers (real-time PCR, FIG. 2)” value (B. longum) of the same molecule?
The value was “significant higher B. longum numbers”.

What about the “L. fermentum detection (real-time PCR, FIG. 4)” value (L. fermentum) of the same molecule?
The value was “reached detectable values”.
